Measurements as given in ChEMBL document CHEMBL5385891, “Design and discovery of novel dipeptide boronic acid ester proteasome inhibitors, an oral slowly-released prodrug for the treatment of multiple myeloma” (Eur J Med Chem, 2023).
Each block holds one compound with its values, some of them ahead of it.

Tests used:
[1] = Stability of the compound in stimulated […] fluid at pH 6.8 measured after 4 hrs; assay type: ADME; conditions: simulated intestinal fluid, read-out: Stability
[2] = Stability of the compound in stimulated […] fluid at pH 1.2 measured after 4 hrs; assay type: ADME; conditions: simulated gi fluid, pH 1.2, 4 h
[3] = Stability of the compound in stimulated […] fluid at pH 6.8 measured after 8 hrs; assay type: ADME; conditions: simulated intestinal fluid, read-out: Stability
[4] = Stability of the compound in stimulated […] fluid at pH 1.2 measured after 8 hrs; assay type: ADME; conditions: simulated gi fluid, pH 1.2, 8 h
[5] = Stability of the compound in stimulated […] fluid at pH 6.8 measured after 12 hrs; assay type: ADME; conditions: simulated intestinal fluid, read-out: Stability
20S proteasome = experiment: Inhibition of human 20S proteasome chymotrypsin-like activity using Suc-Leu-Leu-Val-Tyr-AMC as fluorogenic peptide pre-incubated for 10 mins with compound followed by substrate addition for 60 mins by spectrofluorimetric analysis; assay type: protein-complex assay
[6] = Stability of the compound in stimulated […] fluid at pH 6.8 measured after 1 min; assay type: ADME; conditions: simulated intestinal fluid, read-out: Stability
[7] = Stability of the compound in stimulated […] fluid at pH 1.2 measured after 1 min; assay type: ADME; conditions: simulated gi fluid, pH 1.2, 1 min
[8] = Stability of the compound in stimulated […] fluid at pH 1.2 measured after 12 hrs; assay type: ADME; conditions: simulated gi fluid, pH 1.2, 12 h
[9] = Stability of the compound in stimulated […] fluid at pH 6.8 measured after 2 hrs; assay type: ADME; conditions: simulated intestinal fluid, read-out: Stability
RPMI-8226 [10] = experiment: Cytotoxicity against human RPMI-8226 cells assessed as inhibition of cell proliferation incubated for 72 hrs by Cell Titer-Glo luminescence assay; assay type: functional, cell-based; conditions: RPMI-8226, 72 h
[11] = Stability of the compound in stimulated […] fluid at pH 1.2 measured after 2 hrs; assay type: ADME; conditions: simulated gi fluid, pH 1.2, 2 h
[12] = Intrinsic clearance in mouse liver microsomes at 1 uM incubated for 2 to 60 mins in presence of NADPH by LC-MS/MS analysis; assay type: ADME, Microsome; conditions: time 2-60 min, read-out: CLH
[13] = Half life in Sprague-Dawley rat at 1.2 mg/kg,IG measured upto 24 hrs by LC-MS/MS analysis; assay type: ADME, organism-based; conditions: in vivo, po
[14] = Half life in mouse liver microsomes at 1 uM incubated for 2 to 60 mins in presence of NADPH by LC-MS/MS analysis; assay type: ADME, Microsome; conditions: time 2-60 min
[15] = Half life in human liver microsomes at 1 uM incubated for 2 to 60 mins in presence of NADPH by LC-MS/MS analysis; assay type: ADME, Microsome; conditions: time 2-60 min
[16] = Oral bioavailability in Sprague-Dawley rat at 1.2 mg/kg measured upto 24 hrs by LC-MS/MS analysis; assay type: ADME, organism-based; conditions: in vivo
[17] = Tmax in Sprague-Dawley rat at 1.2 mg/kg,IG measured upto 24 hrs by LC-MS/MS analysis; assay type: ADME, organism-based; conditions: in vivo, po
[18] = Half life in monkey liver microsomes at 1 uM incubated for 2 to 60 mins in presence of NADPH by LC-MS/MS analysis; assay type: ADME, Macaca mulatta, Microsome; conditions: rhesus monkey, time 2-60 min
[19] = Cmax in Sprague-Dawley rat at 1.2 mg/kg,IG measured upto 24 hrs by LC-MS/MS analysis; assay type: ADME, organism-based; design: time < 24 hrs, dose 1.2 mg/kg, route ig; conditions: in vivo, po
[20] = Intrinsic clearance in rat liver microsomes at 1 uM incubated for 2 to 60 mins in presence of NADPH by LC-MS/MS analysis; assay type: ADME, Microsome; conditions: time 2-60 min, read-out: CLH
[21] = Half life in dog liver microsomes at 1 uM incubated for 2 to 60 mins in presence of NADPH by LC-MS/MS analysis; assay type: ADME, Canis lupus familiaris, Microsome; conditions: time 2-60 min
[22] = Intrinsic clearance in monkey liver microsomes at 1 uM incubated for 2 to 60 mins in presence of NADPH by LC-MS/MS analysis; assay type: ADME, Macaca mulatta, Microsome; conditions: rhesus monkey, time 2-60 min, read-out: CLH
[23] = AUC(0-t) in Sprague-Dawley rat at 1.2 mg/kg,IG measured upto 24 hrs by LC-MS/MS analysis; assay type: ADME, organism-based; design: dose 1.2 mg/kg, time < 24 hrs, route ig; conditions: in vivo, po
[24] = Half life in Sprague-Dawley rat at 0.4 mg/kg,iv measured upto 24 hrs by LC-MS/MS analysis; assay type: ADME, organism-based; conditions: in vivo
[25] = Half life in rat liver microsomes at 1 uM incubated for 2 to 60 mins in presence of NADPH by LC-MS/MS analysis; assay type: ADME, Microsome; conditions: time 2-60 min
[26] = AUC (0-t) in Sprague-Dawley rat at 0.4 mg/kg,iv measured upto 24 hrs by LC-MS/MS analysis; assay type: ADME, organism-based; design: time < 24 hrs, dose 0.4 mg/kg, route iv; conditions: in vivo
[27] = Intrinsic clearance in human liver microsomes at 1 uM incubated for 2 to 60 mins in presence of NADPH by LC-MS/MS analysis; assay type: ADME, Microsome; conditions: time 2-60 min, read-out: CLH
[28] = Intrinsic clearance in dog liver microsomes at 1 uM incubated for 2 to 60 mins in presence of NADPH by LC-MS/MS analysis; assay type: ADME, Canis lupus familiaris, Microsome; conditions: time 2-60 min, read-out: CLH
RPMI-8226 [29] = experiment: Antitumor activity against human RPMI-8226 cells xenografted in Balb/c mouse assessed as tumor growth inhibition at po administration biweekly for 21 days; assay type: functional, organism-based; conditions: time 21.0 day
[30] = Toxicity in Balb/c mouse xenografted with human RPMI-8226 cells assessed as body weight loss at 10 mg/kg,po administrated biweekly for 21 days; assay type: organism-based; conditions: in vivo, 504 h, time 21 day
[31] = Toxicity in Balb/c mouse xenografted with human RPMI-8226 cells assessed as body weight loss at 6 mg/kg,po administrated biweekly for 21 days; assay type: organism-based; conditions: in vivo, 504 h, time 21 day
[32] = target: Voltage-gated inwardly rectifying potassium channel KCNH2 (Homo sapiens, UniProt Q12809); experiment: Inhibition of human ERG expressed in HEK293 cells; assay type: toxicity, cell-based
Chain of Voltage-gated inwardly rectifying potassium channel KCNH2 (Q12809 whole entry): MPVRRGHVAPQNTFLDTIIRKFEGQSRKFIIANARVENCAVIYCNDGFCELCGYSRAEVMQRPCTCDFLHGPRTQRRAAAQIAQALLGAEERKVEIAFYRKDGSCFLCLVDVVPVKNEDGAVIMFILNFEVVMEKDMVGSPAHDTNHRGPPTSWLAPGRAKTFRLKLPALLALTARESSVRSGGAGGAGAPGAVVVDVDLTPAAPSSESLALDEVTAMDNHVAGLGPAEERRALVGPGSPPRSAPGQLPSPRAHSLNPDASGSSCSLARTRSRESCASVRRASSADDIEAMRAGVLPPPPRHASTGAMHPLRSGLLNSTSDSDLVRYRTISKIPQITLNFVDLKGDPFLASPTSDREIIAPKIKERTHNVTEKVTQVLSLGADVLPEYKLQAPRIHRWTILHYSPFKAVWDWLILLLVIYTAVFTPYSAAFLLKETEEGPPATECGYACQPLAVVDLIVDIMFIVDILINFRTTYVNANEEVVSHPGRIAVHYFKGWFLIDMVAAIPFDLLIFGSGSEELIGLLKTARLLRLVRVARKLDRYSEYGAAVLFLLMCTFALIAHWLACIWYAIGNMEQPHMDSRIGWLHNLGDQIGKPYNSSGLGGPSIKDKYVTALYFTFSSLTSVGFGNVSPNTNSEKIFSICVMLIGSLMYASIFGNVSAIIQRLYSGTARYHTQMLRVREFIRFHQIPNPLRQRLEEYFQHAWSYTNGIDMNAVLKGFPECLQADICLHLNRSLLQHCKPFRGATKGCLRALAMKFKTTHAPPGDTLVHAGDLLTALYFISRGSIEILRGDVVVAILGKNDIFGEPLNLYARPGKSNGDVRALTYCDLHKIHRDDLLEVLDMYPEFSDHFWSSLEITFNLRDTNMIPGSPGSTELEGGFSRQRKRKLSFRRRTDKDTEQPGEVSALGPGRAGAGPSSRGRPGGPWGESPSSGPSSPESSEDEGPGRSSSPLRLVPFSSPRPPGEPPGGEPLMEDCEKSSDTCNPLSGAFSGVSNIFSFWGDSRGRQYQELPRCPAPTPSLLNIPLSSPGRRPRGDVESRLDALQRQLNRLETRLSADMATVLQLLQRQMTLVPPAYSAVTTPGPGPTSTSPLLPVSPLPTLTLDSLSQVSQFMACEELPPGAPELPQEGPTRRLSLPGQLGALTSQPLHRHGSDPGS

SMILES: CC(C)C[C@H](NC(=O)C(NC(=O)c1cc(C(F)(F)F)ccc1C(F)(F)F)C1CCCC1)B(O)O (some centres not stated)
IC50 (20S proteasome): 6 nM | IC50 (RPMI-8226 [10]): 6.9 nM

SMILES: CC(C)C[C@H](NC(=O)C1(NC(=O)c2cc(C(F)(F)F)ccc2C(F)(F)F)CC1)B(O)O
IC50 (20S proteasome): 86.7 nM

SMILES: CC(C)C[C@H](NC(=O)CNC(=O)c1cc(Cl)ccc1Cl)B1OC2(C)CC3C(=O)NC(=O)C3CC2(C)O1 (some centres not stated)
remaining at 4 h [1]: 9.23% | Stability [2]: 53.78% | remaining at 8 h [3]: 6.91% | Stability [4]: 41.57% | remaining at 12 h [5]: 7.27% | IC50 (20S proteasome): 8.4 nM | remaining at 1 min [6]: 5.4% | Stability [7]: 53.28% | Stability [8]: 38.47% | remaining at 2 h [9]: 7.58% | IC50 (RPMI-8226 [10]): 7.5 nM | Stability [11]: 51.59%

SMILES: CC(C)C[C@H](NC(=O)CNC(=O)c1cc(Cl)ccc1Cl)B1OC2C3OC(C4C(=O)NC(=O)C34)C2(C)O1 (some centres not stated)
remaining at 4 h [1]: 11.4% | Stability [2]: 70.5% | remaining at 8 h [3]: 13.5% | Stability [4]: 66.14% | remaining at 12 h [5]: 10.8% | IC50 (20S proteasome): 22.4 nM | remaining at 1 min [6]: 15% | Stability [7]: 70.91% | Stability [8]: 66.9% | remaining at 2 h [9]: 11.4% | IC50 (RPMI-8226 [10]): 6.8 nM | Stability [11]: 67.8%

SMILES: CC(C)C[C@H](NC(=O)CNC(=O)c1cc(Cl)ccc1Cl)B1OC2C3OC(c4ccccc43)C2O1 (some centres not stated)
remaining at 4 h [1]: 1.18% | Stability [2]: 50.68% | remaining at 8 h [3]: 1.35% | Stability [4]: 52.71% | remaining at 12 h [5]: 1.33% | IC50 (20S proteasome): 7.7 nM | remaining at 1 min [6]: 1.9% | Stability [7]: 19.33% | Stability [8]: 48.53% | remaining at 2 h [9]: 1.79% | IC50 (RPMI-8226 [10]): 6.9 nM | Stability [11]: 35.35%

SMILES: CC(C)C[C@H](NC(=O)CNC(=O)c1cc(C(F)(F)F)ccc1C(F)(F)F)B(O)O
IC50 (20S proteasome): 5.2 nM | IC50 (RPMI-8226 [10]): 18.4 nM

The next lines start with results.

remaining at 4 h [1]: 12.4% | Stability [2]: 61.18% | remaining at 8 h [3]: 12.5% | Stability [4]: 58.58% | remaining at 12 h [5]: 14.2% | IC50 (20S proteasome): 5.2 nM | remaining at 1 min [6]: 7.36% | Stability [7]: 6.7% | Stability [8]: 58.21% | remaining at 2 h [9]: 12.9% | Stability [11]: 60.84%
SMILES: CC(C)C[C@H](NC(=O)CNC(=O)c1cc(Cl)ccc1Cl)B1OC2C3OC(CC3C(=O)O)C2(C)O1 (some centres not stated)
IC50 (RPMI-8226 [10]): 5 nM

microsomal CLint at 1 µM [12]: 37.8 µL/min/mg | half-life [13]: 718 min | half-life at 1 µM [14]: 36.7 min | half-life at 1 µM [15]: 66.6 min | bioavailability [16]: 9.8% | remaining at 4 h [1]: 2.68% | Stability [2]: 57.32% | Tmax [17]: 10.2 min | half-life at 1 µM [18]: 38.9 min | Cmax [19]: 46.5 ng/mL | remaining at 8 h [3]: 3.93% | microsomal CLint at 1 µM [20]: 55.6 µL/min/mg | Stability [4]: 58.67% | remaining at 12 h [5]: 5.76% | half-life at 1 µM [21]: 84.5 min | microsomal CLint at 1 µM [22]: 35.6 µL/min/mg | IC50 (20S proteasome): 2.7 nM | remaining at 1 min [6]: 2.35% | AUC(0-t) at 24 h [23]: 126 ng·h/mL | half-life [24]: 1450 min | half-life at 1 µM [25]: 24.9 min | AUC(0-t) at 24 h [26]: 323 ng·h/mL | Stability [7]: 5.35% | Stability [8]: 58.73% | microsomal CLint at 1 µM [27]: 20.8 µL/min/mg | remaining at 2 h [9]: 2.82% | microsomal CLint at 1 µM [28]: 16.4 µL/min/mg | Stability [11]: 56.83%
SMILES: CC(C)C[C@H](NC(=O)C(NC(=O)c1cc(C(F)(F)F)ccc1C(F)(F)F)C1CC1)B1OC2C3OC(CC3C(=O)O)C2(C)O1 (some centres not stated)
IC50 (RPMI-8226 [10]): 2.9 nM

microsomal CLint at 1 µM [12]: 49 µL/min/mg | half-life [13]: 1800 min | half-life at 1 µM [14]: 28.3 min | half-life at 1 µM [15]: 28.3 min | bioavailability [16]: 34% | remaining at 4 h [1]: 3.98% | Stability [2]: 58.25% | Tmax [17]: 49.8 min | half-life at 1 µM [18]: 8.8 min | Cmax [19]: 174 ng/mL | remaining at 8 h [3]: 5.24% | microsomal CLint at 1 µM [20]: 55 µL/min/mg | Stability [4]: 58.68% | remaining at 12 h [5]: 6.77% | half-life at 1 µM [21]: 72.9 min | microsomal CLint at 1 µM [22]: 158 µL/min/mg | IC50 (20S proteasome): 2.2 nM | remaining at 1 min [6]: 2.27% | AUC(0-t) at 24 h [23]: 2680 ng·h/mL | half-life [24]: 1450 min | half-life at 1 µM [25]: 25.2 min | AUC(0-t) at 24 h [26]: 2270 ng·h/mL | Stability [7]: 6.44% | Stability [8]: 59.68% | microsomal CLint at 1 µM [27]: 49 µL/min/mg | remaining at 2 h [9]: 3.55% | microsomal CLint at 1 µM [28]: 19 µL/min/mg | Stability [11]: 59.73%
SMILES: CC(C)C[C@H](NC(=O)C(CC1CC1)NC(=O)c1cc(C(F)(F)F)ccc1C(F)(F)F)B1OC2C3OC(CC3C(=O)O)C2(C)O1 (some centres not stated)
Activity (RPMI-8226 [29]): Dose-Dependent Effect | Activity [30]: Non-Toxic | IC50 (RPMI-8226 [10]): 5.6 nM | Activity [31]: Non-Toxic | IC50 [32]: > 30000 nM

IC50 (20S proteasome): 5 nM
SMILES: CC(C)C[C@H](NC(=O)C(CC1CC1)NC(=O)c1cc(C(F)(F)F)ccc1C(F)(F)F)B(O)O (some centres not stated)
IC50 (RPMI-8226 [10]): 4.9 nM
